The series can be described thus: incorporation of adriamycin into MFG, by difference, spectrofluorometric determination. It counts as physicochemical. The settings on record: 0.9 ml packed MFG with 0.1 ml adriamycin 1 mg/ml in PBS, overnight at room temperature. The procedure:
The milk fat globules to be loaded with drug are obtained from raw bovine milk by centrifugation at 1,500 x g for 10 min at room temperature followed by removal of the underlying (sub-natant) aqueous material. The MFG is washed three times by the addition of phosphate buffered saline, pH 7.4 (PBS) to the original volume followed by centrifugation at 1500 x g for 10 min and removal of the sub-natant fluid. Adriamycin is rapidly and stably loaded into the MFG very efficiently by incubating 0.9 ml packed MFG with 0.1 ml adriamycin, dissolved in PBS to a concentration of 1 mg/ml, overnight at room temperature. The resultant MFG is then transferred to a 10 ml syringe fitted with a stopcock, brought to 10 ml with PBS and centrifuged at 1500 x g for 10 min. The sub-natant fluid is removed by opening the stopcock and the milk fat globule layer is washed three times by gentle suspension in PBS followed by centrifugation. […] The presence of adriamycin is detected in the MFG by its fluorescence emission at 590 nm using fluorescence microscopy. Alternatively, the amount of incorporated adriamycin can be calculated by difference, after determination of the amount of adriamycin remaining in the first sub-natant fraction by spectrofluorometric determination using an excitation wavelength of 470 nm and an emission wavelength of 590 nm. […]

This note sets out measurements from patent EP0306971A2, “Use of milk fat globules as carriers for drugs and as microflotation devices in immunoassays and cell/molecular fractionation” (Bankert, Richard B., priority 1987, dated 1989).

Consider `COc1cccc2c1C(=O)c1c(O)c3c(c(O)c1C2=O)C[C@@](O)(C(=O)CO)C[C@@H]3O[C@H]1C[C@H](N)[C@H](O)[C@H](C)O1` [adriamycin], for which the “added drug incorporated into the MFG” value was “up to 80%”.
